In US20250136555A1 (HARBIN MEDISAN PHARMACEUTICAL CO., LTD., priority 2022, published 2025):
pEC50: −log10 of the molar value. Entries after “also recorded” stand apart in the source; their conditions may differ.

Experiments:
PPARα = target: T1, PPARα (Homo sapiens, UniProt Q07869); test: GAL4 hybrid reporter gene method, PPARα agonistic activity; assay type: cell-based; conditions: Cos-7 cells, Gal4-PPARα (LBD); GW7647 10 nM = 100%; 16 h
T1 construct: expressed in transfected cells; host or cells: COS-7
T1 sequence (Q07869 239-466 limits assumed): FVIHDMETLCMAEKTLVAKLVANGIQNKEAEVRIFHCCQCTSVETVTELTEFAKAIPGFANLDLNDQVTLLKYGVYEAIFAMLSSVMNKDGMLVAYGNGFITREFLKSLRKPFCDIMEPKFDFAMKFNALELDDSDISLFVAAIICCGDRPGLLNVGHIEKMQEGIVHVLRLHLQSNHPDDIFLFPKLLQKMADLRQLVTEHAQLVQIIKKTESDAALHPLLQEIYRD
Procedure: (§1) Cos-7 cells (African green monkey kidney fibroblasts, commonly used tool cells) were cultured in a 10-cm cell culture dish with a DMEM complete medium containing 10% fetal bovine serum. When growing at a density of about 70%, the cells were ready for transfection. […] The working solution described above was then combined with 8 mL of the DMEM complete medium, and the mixture was added to the cell culture dish for cell transfection. After 4 h of transfection, the cells were digested, resuspended, and seeded into a 96-well plate at 25,000 cells/well. […] 10 μL of a reporter gene detection solution (purchased from Shanghai Beyotime Biological Tech. Co., Ltd.) was added. After the resulting solution was mixed and reacted, biological fluorescence was detected by using a multifunctional microplate reader, and corresponding half maximal effective concentration (EC50) values were calculated according to the detection values. […] Transfection working solutions for different nuclear receptors were prepared and added into COS-7 cells. The preparation method for the transfection working solution was as follows: the constructed pBIND-Gal4-PPARα (LBD) (or pBIND-Gal4-PPARδ (LBD) plasmid or pBIND-Gal4-PPARγ (LBD) plasmid or pBIND-Gal4-RARα (LBD) plasmid or pBIND-Gal4-RARγ (LBD) plasmid or pBIND-Gal4-RARβ (LBD) plasmid or pBIND-Gal4-RORα (LBD) plasmid or pBIND-Gal4-RORγ (LBD) plasmid or pBIND-Gal4-RORβ (LBD) plasmid or pBIND-Gal4-FXR (LBD) plasmid or pBIND-Gal4-RXRα.

PPARγ = target: T2, PPARγ (Homo sapiens, UniProt P37231); test: GAL4 hybrid reporter gene method, PPARγ agonistic activity; assay type: cell-based; conditions: Cos-7 cells, Gal4-PPARγ (LBD); Rosiglitazone 1 μM = 100%; 16 h
T2 construct: expressed in transfected cells; host or cells: COS-7
T2 sequence (P37231 238-503 limits assumed): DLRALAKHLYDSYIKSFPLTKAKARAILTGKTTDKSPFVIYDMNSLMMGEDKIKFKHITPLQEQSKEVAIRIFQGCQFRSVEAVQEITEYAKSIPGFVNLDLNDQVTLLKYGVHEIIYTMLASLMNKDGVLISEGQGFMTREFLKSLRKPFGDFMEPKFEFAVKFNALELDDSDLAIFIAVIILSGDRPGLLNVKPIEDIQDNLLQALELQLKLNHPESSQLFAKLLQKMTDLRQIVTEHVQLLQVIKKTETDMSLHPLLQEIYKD
Procedure: as §1

[1] = Metabolic stability in human liver microsomes; assay type: in vitro ADME
Procedure: A solution of the compound in acetonitrile at a concentration of 500 μM was prepared and diluted in 0.1 M potassium phosphate solution to obtain a 1.5 μM drug working solution. The drug working solution was co-incubated with a human liver microsome working solution at a final concentration of 0.75 mg/mL and a NADPH solution (at a final concentration of 550 μM), and the incubation was terminated by adding an acetonitrile solution at 0 min, 15 min, 30 min, 45 min, and 60 min, respectively. The remaining amount of the compound remained in the system at each time point was detected by using LC/MS, the absolute value k of the slope was measured by plotting the natural logarithm of the percentage of the remaining amount of the compound over time, and the calculation was performed according to the formula: T1/2 (half-life)=ln2/k=0.693/k.

[2] = tested on: PPARα/δ downstream target genes; test: Expression of PPARα/δ downstream target genes in mouse liver and skeletal muscle; assay type: in vivo, C57 mice; conditions: mice, 0.03 and 0.1 mg/kg, three days
Procedure: C57 mice were divided into three groups, i.e., a control group, a low dose group (0.03 mg/kg), and a high dose group (0.1 mg/kg), with 6 mice in each group. Each group of mice was intragastrically administered compound 1 or a solvent control with the same volume for three consecutive days according to the doses. Three days after administration, the mice were euthanized and dissected for sampling. Liver and skeletal muscle were snap-frozen in liquid nitrogen for subsequent experiments. After extracting RNA in the liver and skeletal muscle, the up-regulation fold of the expression of the PPARα/δ downstream target genes was detected. […] Some of other compounds of the present invention also have similar effects.

[3] = tested on: ANIT-induced cholestasis in mice; test: α-Naphthylisothiocyanate (ANIT)-induced cholestasis in mice; assay type: in vivo, C57 mice
Procedure: Animals: 25 male C57 mice, SPF grade, 8 weeks old, weighing about 20 g, purchased from Beijing Vital River. All animals maintained a 12-hour alternating circadian rhythm and were given ad libitum access to food and water. […] The mice were all fed food and water normally. The molding and administration processes were as follows: the mice in each of the administration groups were intragastrically administered the corresponding doses and types of compounds 6 h before modeling, and the mice in the control group and the model group were administered solvent controls with the same volume. When modeling, except for the control group, the mice in each group were intragastrically administered ANIT at a dose of 80 mg/kg, and the mice in the control group were administered the solvent control with the same volume. The administration was then continued for two days, once per day. Each group of mice was weighed every day, and their body weight, hair, feces, and activities were carefully observed and recorded. Forty-eight hours after giving ANIT for molding, blood was collected from the orbit, the mice were euthanized, and the liver was collected. The right lobular tissue of the liver was fixed with 4% paraformaldehyde and used for sectioning followed by HE staining. The remaining liver tissues were snap-frozen in liquid nitrogen for subsequent assays of other indexes. The whole blood was left to stand at room temperature for 2 h and centrifuged at 3000 rpm for 15 min, and serum was collected. Levels of aspartate aminotransferase (AST), alanine aminotransferase (ALT), alkaline phosphatase (ALP), total bilirubin (TBil), and total bile acid (TBA) in the serum were assayed. The fixed tissue was sent to Wuhan Servicebio Technology Co., Ltd. for preparing HE-stained sections. The test was performed using a tissue and blood alkaline phosphatase (AKP/ALP) activity assay kit (BC2145) purchased from Beijing Solarbio Science & Technology Co., Ltd. The liver tissue stored at −80° C. was taken and placed in liquid nitrogen, about 0.1 g of liver tissue was rapidly cut off, and 1 mL of an extracting solution was added. The mixture was ground thoroughly and centrifuged at 4° C. and 10000 rpm for 10 min, and the supernatant was collected for assay. The assay was performed by referring to the method in the product's instruction. Data were corrected according to protein concentrations of the samples, and the catalytic production of 1 μmol phenol per minute per milligram protein at 37° C. was defined as one enzymatic activity unit.

[4] = human liver microsomes 0.75 mg/mL, NADPH

For Cc1cc(CN2C(=O)CN(c3ccc(C(F)(F)F)cc3)C2=O)cc(C)c1OC(C)(C)C(=O)O [Compound 1, 2-(4-((2,5-Dioxo-3-(4-(trifluoromethyl)phenyl)imidazolidin-1-yl)methyl)-2,6-dimethylphenoxy)-2-methylpropionic Acid], the pEC50 (PPARα) was 9.15, the “PPARα EC50 (nM)” value (PPARα) was “picomolar levels; also recorded: low nanomolar levels” and the pEC50 (PPARγ) was 5.78. For the same molecule, the “metabolic stability in human liver microsomes” value ([1]; human liver microsomes) was “very good metabolic stability”, the CLint scaled [1, 4] was 6.2 mL/min/kg and the half-life [1, 4] was over 2 h. The “expression of PPARα/δ downstream target genes in liver and skeletal muscle” value [2] was “significantly up-regulated”, the “intrahepatic cholestasis: liver morphology and serum color (FIG. 2)” value ([3]; ANIT 80 mg/kg, 0.03 and 0.1 mg/kg intragastric) was “effectively improve intrahepatic cholestasis” and the “therapeutic effect on mouse cholestatic model (conclusion)” value ([3]; ANIT model) was “potent therapeutic effect”. The “level of intrahepatic ALP (FIG. 4)” value ([3]; ANIT model, 0.03 and 0.1 mg/kg) was “significantly down-regulate”, the “necrotic areas in the liver, HE staining (FIG. 5)” value ([3]; ANIT model, 0.03 and 0.1 mg/kg) was “dose-dependently reduce the number and area of necrotic areas” and the “serum ALP (FIG. 3)” value ([3]; ANIT model, 0.03 and 0.1 mg/kg) was “a certain tendency to reduce”. For the same molecule, the “serum ALT level (FIG. 3)” value ([3]; ANIT model, 0.03 and 0.1 mg/kg) was “dose-dependently and significantly down-regulate”, the “serum AST level (FIG. 3)” value ([3]; ANIT model, 0.03 and 0.1 mg/kg) was “dose-dependently and significantly down-regulate” and the “serum TBA level (FIG. 3)” value ([3]; ANIT model, 0.03 and 0.1 mg/kg) was “dose-dependently and significantly down-regulate”. For the same molecule, the “serum TBil level (FIG. 3)” value ([3]; ANIT model, 0.03 and 0.1 mg/kg) was “dose-dependently and significantly down-regulate”, the “ability to improve general appearance of the liver and serum color versus GFT505” value ([3]; compound 1 0.03 mg/kg vs GFT505 30 mg/kg) was “comparable to the effect of GFT505 at 30 mg/kg” and the “effects on reducing hepatic enzymes, total bilirubin and total bile acid versus GFT505” value ([3]; compound 1 0.1 mg/kg vs GFT505 30 mg/kg) was “comparable to that of GFT505 at 30 mg/kg”. The “effect on reducing intrahepatic ALP versus GFT505” value ([3]; compound 1 at the two doses vs GFT505 30 mg/kg) was “slightly superior to that of GFT505 at 30 mg/kg”.
